Source: patent US20080090881A1, “TREATMENT OF DIABETES WITH THIAZOLIDINEDIONE AND METFORMIN” (SmithKline Beecham plc, priority 1997, published 2008)

Test: clinical
Settings: male, human, plasma, po
Procedure: Sixteen male volunteers, aged 22 to 55 years, received oral Compound (I) (2 mg Q 12 h), M (500 mg Q12 h), or the combination, each for 4 days.

Row | SMILES | Tmax [h] | half-life [h]
1 | CN(C)C(=N)N=C(N)N [M, 1,1-Dimethylbiguanidine, reference compound] | 3 | 
2 | CN(CCOc1ccc(CC2SC(=O)NC2=O)cc1)c1ccccn1 (stereo not drawn) [Compound (I), 5-[4-[2-(N-methyl-N-(2-pyridyl)amino)ethoxy]benzyl]thiazolidine-2,4-dione] | 3 | 3.24
